Source: paper doi:10.1101/2025.07.09.663793, “Activating and inhibiting nucleotide signals coordinate bacterial anti-phage defense” (bioRxiv, 2025)

Columns and labels:
CloA (SeCloA) [1] = target: T1, CloA (SeCloA); assay: […] Å cryo-EM of CloA co-expressed with CloB; LC-MS of released ligand; dGTPase inhibition (malachite green); format: biochemical, Salmonella enterica
T1 construct: full-length CloA from S. enterica SA20044414, octamer

[2] = target: Salmonella enterica SA20044414 Clover protein A (CloA), wild type (Salmonella enterica SA20044414); assay: cryo-EM structure; apo Salmonella CloA, 1 mg/mL, vitrified at 4°C; C4 symmetry
[3] = target: Shewanella putrefaciens CN-32 dGTPase (Shewanella putrefaciens CN-32); assay: crystal structure; SpdGTPase at 10 mg/mL in 20 mM HEPES-KOH pH 7.5, 100 mM KCl; hanging drop, 18°C; reservoir 0.2 M magnesium chloride, 0.1 M HEPES-NaOH pH 7.5, 30% PEG-400
CloA (SeCloA) [4] = target: T2, CloA (SeCloA) (Salmonella enterica, UniProt A0A5H6DAK1, H126A/E129A); assay: […] Å cryo-EM structure of CloA–dGTP–dTTP; format: binding
T2 construct: gene dgt; CloA^HEAA, octamer

CloA (SeCloA) [5] = target: T3, CloA (SeCloA); assay: activation of purified CloA dGTPase, phosphate release and LC-MS; format: biochemical, Salmonella enterica
T3 construct: wild-type CloA

CloA (SeCloA) [6] = target: T3, CloA (SeCloA); assay: inhibition of purified CloA dGTPase, phosphate release (malachite green); format: biochemical, Salmonella enterica

Question: How did the IC50 (CloA (SeCloA) [1]) turn out when `Cc1cn([C@H]2C[C@H](OP(=O)(O)OC[C@H]3O[C@@H](n4cc(C)c(=O)[nH]c4=O)C[C@@H]3O)[C@@H](COP(=O)(O)OP(=O)(O)OP(=O)(O)O)O2)c(=O)[nH]c1=O` [p3diT, 5′-triphosphothymidyl-3′5′-thymidine] was run?
Answer: ~7.6 µM

Question: How did the stoichiometry N [2] turn out when “Salmonella enterica SA20044414 Clover protein A (CloA), wild type (enzyme)” was run?
Answer: 8

Question: With “Shewanella putrefaciens CN-32 dGTPase (enzyme)” as the molecule, how does the stoichiometry N [3] read?
Answer: 6

Question: How did the “2.6 Å cryo-EM structure of CloA-dGTP-dTTP” value (CloA (SeCloA) [4]) turn out when `Cc1cn([C@H]2C[C@H](O)[C@@H](COP(=O)(O)OP(=O)(O)OP(=O)(O)O)O2)c(=O)[nH]c1=O` [dTTP] was run?
Answer: In the CloA–dGTP–dTTP active state structure, dTTP is bound at the CloAAB interface in an adjacent pocket

Question: And the EC50 (CloA (SeCloA) [5])?
Answer: ~15 µM

Question: Which IC50 (CloA (SeCloA) [6]) does the source give for `Cc1cn([C@H]2C[C@H](OP(=O)(O)OC[C@H]3O[C@@H](n4cc(C)c(=O)[nH]c4=O)C[C@@H]3O)[C@@H](COP(=O)(O)OP(=O)(O)O)O2)c(=O)[nH]c1=O` [p2diT] here?
Answer: ~20.9 µM
